Reference: PubChem BioAssay (NCI)
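96-well plates; 48 h exposure; 5 concentrations. Endpoints by linear interpolation between flanking doses. Not reached: highest tested concentration assigned. Here, GI50 denotes the concentration required for 50% inhibition of growth. At the TGI there is no net growth.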

Tests used:
Experiment in all cases: inhibition of tumour cell growth, NCI panel, 48 h
[1] = test system: RPMI-8226 leukemia
[2] = test system: M14 melanoma
[3] = test system: SK-MEL-28 melanoma
[4] = test system: OVCAR-3 ovarian
[5] = test system: SNB-75 CNS
[6] = test system: COLO 205 colon
[7] = test system: SW-620 colon
[8] = test system: CAKI-1 renal
[9] = test system: A498 renal
[10] = test system: RXF 393 renal

Structure (SMILES): CN1CCN(C(=O)COc2ccc(C34CC5CC(CC(C5)C3)C4)cc2)CC1
- GI50 [1]: 2.09 µM
- TGI [1]: 5.73 µM
- GI50 [2]: 15.3 µM
- TGI [2]: 30.7 µM
- GI50 [3]: 12.7 µM
- TGI [3]: 26.2 µM
- GI50 [4]: 13.4 µM
- TGI [4]: 27.3 µM
- GI50 [5]: 14.1 µM
- TGI [5]: 29.3 µM
- GI50 [6]: 5.53 µM
- TGI [6]: 20.5 µM
- GI50 [7]: 12.8 µM
- TGI [7]: 29.6 µM
- GI50 [8]: 15.6 µM
- TGI [8]: 30.2 µM
- GI50 [9]: 15.2 µM
- TGI [9]: 30.5 µM
- GI50 [10]: 7.44 µM
- TGI [10]: 21.1 µM

Structure (SMILES): COc1ccc2ncnc(Nc3ccc(OCc4ccccc4)cc3)c2c1
- GI50 [1]: 7.58 µM
- TGI [1]: > 25 µM
- GI50 [2]: 8.48 µM
- TGI [2]: > 25 µM
- GI50 [3]: 9.36 µM
- TGI [3]: > 25 µM
- GI50 [4]: 7.08 µM
- TGI [4]: > 23.1 µM
- GI50 [5]: 9.78 µM
- TGI [5]: > 25 µM
- GI50 [6]: 7.96 µM
- TGI [6]: > 25 µM
- GI50 [7]: 9.04 µM
- TGI [7]: > 25 µM
- GI50 [8]: 3.85 µM
- TGI [8]: > 17.2 µM
- GI50 [9]: 2.14 µM
- TGI [9]: 14.1 µM
- GI50 [10]: 4.59 µM
- TGI [10]: 10.2 µM

Structure (SMILES): COc1cc2c(cc1OC)C(Cl)C(c1ccc(F)cc1)=C2Cl (centres undefined)
- TGI [1]: 39.2 µM
- TGI [2]: 29.2 µM
- TGI [3]: 33.3 µM
- TGI [4]: 30.6 µM
- TGI [5]: 29.1 µM
- TGI [6]: 31 µM
- TGI [7]: 30.4 µM
- TGI [8]: 29.1 µM
- TGI [9]: 29.9 µM
- TGI [10]: 30.1 µM

Structure (SMILES): O=C(NC1CCCCC1)NS(=O)(=O)c1ccc(N2N=C3c4ccccc4CC3C2c2ccc(Cl)cc2)cc1 (centres undefined)
- GI50 [1]: 3.57 µM
- TGI [1]: 22.6 µM
- GI50 [2]: 10.8 µM
- TGI [2]: 24.4 µM
- GI50 [3]: 29.7 µM
- TGI [3]: > 100 µM
- GI50 [4]: 18.4 µM
- TGI [4]: 42 µM
- GI50 [5]: 13.2 µM
- TGI [5]: 85.9 µM
- GI50 [6]: 11.7 µM
- TGI [6]: 34 µM
- GI50 [7]: 10.3 µM
- TGI [7]: 24.3 µM
- GI50 [8]: 12.8 µM
- TGI [8]: 31.8 µM
- TGI [9]: 9.2 µM
- GI50 [10]: 23.2 µM
- TGI [10]: 87.5 µM

Structure (SMILES): c1ccc(-c2n(Cc3ccc4ccccc4n3)cc[n+]2Cc2ccc3ccccc3c2)cc1
- GI50 [1]: 0.288 µM
- TGI [1]: 1.52 µM
- GI50 [2]: 1.25 µM
- TGI [2]: 3.35 µM
- GI50 [3]: 0.936 µM
- TGI [3]: 2.84 µM
- GI50 [4]: 0.766 µM
- TGI [4]: 2.63 µM
- GI50 [5]: 0.624 µM
- TGI [5]: 3.15 µM
- GI50 [6]: 0.752 µM
- TGI [6]: 2.26 µM
- GI50 [7]: 1.91 µM
- TGI [7]: 7.4 µM
- GI50 [8]: 1.59 µM
- TGI [8]: 3.54 µM
- GI50 [9]: 1.16 µM
- TGI [9]: 4.79 µM
- GI50 [10]: 1.34 µM
- TGI [10]: 3.38 µM

Structure (SMILES): C=C1C[C@H](O)[C@H](Br)C(C)(C)[C@@]12CCC(C)=C(Cl)C2
- GI50 [1]: 0.229 µM
- TGI [1]: 1.25 µM
- GI50 [2]: 0.314 µM
- TGI [2]: 1.66 µM
- GI50 [3]: 0.458 µM
- TGI [3]: 2.78 µM
- GI50 [4]: 0.509 µM
- TGI [4]: 4.13 µM
- GI50 [5]: 0.16 µM
- TGI [5]: 0.785 µM
- GI50 [6]: 0.157 µM
- TGI [6]: 0.51 µM
- GI50 [7]: 0.625 µM
- TGI [7]: 11.3 µM
- GI50 [8]: 0.133 µM
- TGI [8]: 13.2 µM
- GI50 [9]: 0.838 µM
- TGI [9]: 4.04 µM
- GI50 [10]: 0.35 µM
- TGI [10]: 4.12 µM

Structure (SMILES): O=S1C(=c2ccc(=C3Sc4ccccc4S3)cc2)Sc2ccccc21 (centres undefined)
- TGI [1]: > 100 µM
- TGI [2]: 29 µM
- TGI [3]: 7 µM
- TGI [4]: > 100 µM
- TGI [5]: 35.8 µM
- TGI [6]: > 100 µM
- TGI [7]: > 100 µM
- TGI [8]: > 91.1 µM
- TGI [9]: 30.2 µM
- TGI [10]: > 57.7 µM

Structure (SMILES): NC(=S)N/N=C\c1nccc2c(C(F)(F)F)cccc12
- GI50 [1]: 0.376 µM
- TGI [1]: 14.9 µM
- GI50 [2]: 0.224 µM
- TGI [2]: 0.706 µM
- GI50 [3]: 0.57 µM
- TGI [3]: 12.7 µM
- GI50 [4]: 0.294 µM
- TGI [4]: 10.8 µM
- GI50 [5]: 0.284 µM
- TGI [5]: 16.7 µM
- GI50 [6]: 0.237 µM
- TGI [6]: 10.8 µM
- GI50 [7]: 0.463 µM
- TGI [7]: 17.4 µM
- GI50 [8]: 0.312 µM
- TGI [8]: 8.73 µM
- GI50 [9]: 0.433 µM
- TGI [9]: 10.6 µM
- GI50 [10]: 0.251 µM
- TGI [10]: 2.53 µM

Structure (SMILES): CC[C@@H](c1ccc(O)c(O)c1)[C@@H](CC)c1ccc(O)c(O)c1
- GI50 [1]: 4.31 µM
- TGI [1]: 26.3 µM
- GI50 [2]: 3.59 µM
- TGI [2]: 13.5 µM
- GI50 [3]: 19.1 µM
- TGI [3]: 44.6 µM
- GI50 [4]: 3.61 µM
- TGI [4]: 11.6 µM
- GI50 [5]: 17.7 µM
- TGI [5]: 41.6 µM
- GI50 [6]: 1.97 µM
- TGI [6]: 4.11 µM
- GI50 [7]: 2.4 µM
- TGI [7]: 5.67 µM
- GI50 [8]: 2.77 µM
- TGI [8]: 9.43 µM
- GI50 [9]: 44.4 µM
- TGI [9]: > 100 µM
- GI50 [10]: 2.57 µM
- TGI [10]: 7.59 µM

Structure (SMILES): CN(C)CC1CCC/C1=N/OC(=O)c1ccccc1 (centres undefined)
- TGI [1]: > 100 µM
- TGI [2]: > 100 µM
- TGI [3]: > 100 µM
- TGI [4]: > 100 µM
- TGI [5]: > 100 µM
- TGI [6]: > 100 µM
- TGI [7]: > 100 µM
- TGI [8]: > 100 µM
- TGI [9]: > 100 µM
- TGI [10]: > 100 µM

Structure (SMILES): COC(=O)[C@]12CC[C@@H](C)[C@H](C)[C@@H]1C1=CC[C@@H]3[C@@]4(C)C[C@@H](O)[C@H](O)[C@@](C)(CO)[C@@H]4[C@H](O)C[C@@]3(C)[C@]1(C)CC2
- GI50 [1]: 5.18 µM
- TGI [1]: 31.3 µM
- GI50 [2]: 12.8 µM
- TGI [2]: 29.4 µM
- GI50 [3]: 11.8 µM
- TGI [3]: 30.3 µM
- GI50 [4]: 12.8 µM
- TGI [4]: 26 µM
- GI50 [5]: 12.3 µM
- TGI [5]: 28.1 µM
- GI50 [6]: 14.8 µM
- TGI [6]: 31.2 µM
- GI50 [7]: 18.8 µM
- TGI [7]: 39.4 µM
- GI50 [8]: 13.1 µM
- TGI [8]: 27.3 µM
- GI50 [9]: 16.6 µM
- TGI [9]: 30.9 µM
- GI50 [10]: 9.32 µM
- TGI [10]: 23.1 µM

Structure (SMILES): COC(=O)c1cc2oc(/C=C3/SC(=S)N(NC(C)=O)C3=O)cc2n1C
- GI50 [1]: 24 µM
- TGI [1]: > 100 µM
- GI50 [2]: 10.8 µM
- TGI [2]: 31.8 µM
- GI50 [3]: 40.3 µM
- TGI [3]: > 100 µM
- GI50 [4]: 19.2 µM
- TGI [4]: 55 µM
- GI50 [5]: 34.7 µM
- TGI [5]: > 100 µM
- GI50 [6]: 22.4 µM
- TGI [6]: > 100 µM
- GI50 [7]: 7.51 µM
- TGI [7]: 25.5 µM
- GI50 [8]: 10 µM
- TGI [8]: 36.9 µM
- GI50 [9]: 10.8 µM
- TGI [9]: 28.1 µM
- GI50 [10]: 36.5 µM
- TGI [10]: 87.7 µM

Structure (SMILES): O=C(/C=C/c1c(O)ccc2ccccc12)c1ccc([N+](=O)[O-])cc1
- TGI [1]: > 100 µM
- TGI [2]: 41.6 µM
- TGI [3]: > 67.6 µM
- TGI [4]: 39.8 µM
- TGI [5]: > 100 µM
- TGI [6]: > 72.5 µM
- TGI [7]: > 57.6 µM
- TGI [8]: > 74 µM
- TGI [9]: > 100 µM
- TGI [10]: 61.8 µM

Structure (SMILES): c1ccc(Nc2ncc(-c3ccccc3)o2)cc1
- GI50 [1]: > 25 µM
- TGI [1]: > 25 µM
- GI50 [2]: > 25 µM
- TGI [2]: > 25 µM
- GI50 [3]: > 25 µM
- TGI [3]: > 25 µM
- GI50 [4]: > 25 µM
- TGI [4]: > 25 µM
- GI50 [5]: > 24.1 µM
- TGI [5]: > 25 µM
- GI50 [6]: > 25 µM
- TGI [6]: > 25 µM
- GI50 [7]: > 25 µM
- TGI [7]: > 25 µM
- GI50 [8]: 17.8 µM
- TGI [8]: > 25 µM
- GI50 [9]: > 24 µM
- TGI [9]: > 25 µM
- GI50 [10]: > 19.7 µM
- TGI [10]: > 25 µM

Structure (SMILES): CC1(C)[C@@H](NOCCCN)CC[C@]2(C)[C@H]3C(=O)C=C4[C@@H]5C[C@](C)(C(=O)O)CC[C@]5(C)CC[C@@]4(C)[C@]3(C)CC[C@@H]12
- GI50 [1]: 2.8 µM
- TGI [1]: 19.7 µM
- GI50 [2]: 8.46 µM
- TGI [2]: 28.8 µM
- GI50 [3]: 4.08 µM
- TGI [3]: 13.6 µM
- GI50 [4]: 4.17 µM
- TGI [4]: 19.7 µM
- GI50 [5]: 12 µM
- TGI [5]: 42.4 µM
- GI50 [6]: 2.41 µM
- TGI [6]: 6.34 µM
- GI50 [7]: 3.41 µM
- TGI [7]: 14 µM
- GI50 [8]: 2.44 µM
- TGI [8]: 6.26 µM
- GI50 [9]: 17.8 µM
- TGI [9]: 43 µM
- GI50 [10]: 2.3 µM
- TGI [10]: 5.31 µM

Structure (SMILES): CC(C)[C@@H]1NC(=O)[C@]2(C)CSC(=N2)c2ccnc(c2)CNC(=O)C[C@@H](/C=C/CCS)OC1=O
- GI50 [1]: 1.49 µM
- TGI [1]: > 27.7 µM
- GI50 [2]: 0.0957 µM
- TGI [2]: > 100 µM
- GI50 [3]: 0.119 µM
- TGI [3]: 3.46 µM
- GI50 [4]: 0.833 µM
- TGI [4]: 6.87 µM
- GI50 [5]: 0.0912 µM
- TGI [5]: > 100 µM
- GI50 [6]: 0.717 µM
- TGI [6]: 2.41 µM
- GI50 [7]: 0.448 µM
- TGI [7]: 7.65 µM
- GI50 [8]: 2.86 µM
- TGI [8]: 15.6 µM
- GI50 [9]: 0.0323 µM
- TGI [9]: 0.254 µM
- GI50 [10]: 0.0828 µM
- TGI [10]: 0.562 µM
